Data as given in US20030091533A1, “Regulation of mononuclear phagocyte stimulation” (priority 2001, published 2003).

Tests used:
ERK½ = ERK½ MAP kinase phosphorylation immunoblot in PBM; type: cell-based, human; conditions: pretreatment before LPS 1 μg/ml; IL-9 20 ng/ml 24 hour; PD98059 1 hour
Experimental: PBM, isolated as described infra, were treated with 100 !M PD98059 (or with the same volume of DMSO as control) 1 hour before preincubation for 24 hour with medium or IL-9 (20 ng/ml). For the phosphoERK immunoblot assay (A), PBM were then stimulated by LPS (1 μg/ml) for the indicated periods of time (5 min to 20 hours) as compared to unstimulated cells (med), and processed for the detection of phosphorylated and total ERK½ as described in infra. For the oxidative burst (B), PBM were stimulated by LPS (1 μg/ml) for 20 hour and their oxidative capacity was evaluated through DCFH oxidation The results are presented in FIG. 7.
PBM were preincubated for 24 hour with medium alone (med) or IL-9, IL-4 or TGF-β1 (20 ng/ml), and stimulated by LPS (1 μg/ml) for the indicated periods of time (30 to 240 min). […]
PBM (1×10^6) were preincubated for 24 hour with medium alone or with cytokines (IL-9, IL-4 or TGF-β1 at 20 ng/ml) and stimulated from 5 min to 20 hour by 1 μg/ml LPS. […] Cell extracts (10 μg, as determined by the bicinchoninic acid-based assay) were subjected to SDS-12%PAGE, and electrotransferred onto a nitrocellulose membrane (Amersham) immunoblotted to detect and compare phosphorylated (threonine^202/tyrosine^204 residues) and total ERK½, using specific antibodies and enhanced chemiluminescence (New England Biolabs). […]

LPS-stimulated AM = assay: TGF-β1 release by ELISA, AM; type: cell-based, human; conditions: acid-treated supernatants; preincubated 24 hour 20 ng/ml, LPS 20 h; medium-preincubated 109±23
Experimental: FIG. 6 depicts the effect of IL-9, IL-4 and IFN-γ on the release of IL-10 (A) and TGF-β1 (B) by LPS-stimulated PBM and AM cultured under the same conditions as described in FIG. 5 Example I. D. TGF-β1 was determined by ELISA in crude supernatants (untreated supernatants) and in ethanol-acid (acid-treated) supernatants, using a kit from Biosource for determining TGF-β1 release from its latent complexes. An ELISA kit from CLB (Amsterdam, The Netherlands) was used to determine IL-10 following the manufacturer's protocol. […] Data are means±SEM (n=3). *P<0.05 compared with unstimulated cells; **P<0.05 compared with cells preincubated with medium.
Cells (1×10^6 PBM or 0.5×10^6 AM/well) were distributed in 24-well plates (Falcon), preincubated in cRPMI for 24 hours at 37° C., 5% CO2 with cytokines (IL-9, IL-4 (20 ng/ml) and IFN-γ (200 U/ml)) and stimulated for 20 hours with 1 μg/ml LPS without removing cytokines. […] Release of TNF-α was quantified by a cytotoxicity bioassay using WEHI 164 cells clone 13, as previously described (Espevik and Nissen-Meyer, J. Immunol. Methods, 95:99-105 (1986) incorporated herein by reference), using rhTNF-α from Boehringer as a standard. IL-8, IL-10 and TGF-β1 concentrations were determined by ELISA. A kit from CLB (Amsterdam, The Netherlands) was used for IL-10 quantitation, following the manufacturer's protocol. […]

Substance: IL-9: Human IL-9 purified from SF9 insect cell cultures infected with recombinant baculovirus
- LPS-induced ERK½ phosphorylation in PBM (ERK½): strongly down regulates
- production of TGF-β1 by LPS-stimulated AM (LPS-stimulated AM): 366+21 pg/ml
